Tests used:
[1] = system: IL-15 induced STAT5 phosphorylation in human whole blood lymphocytes; experiment: HWB IL-15 induced STAT5 phosphorylation assay; format: cell-based; conditions: Lymphocyte, IL-15 stimulated, read-out: HWB-IL15-pSTAT5 IC50
Procedure: HWB IL-15 Induced STAT5 Phosphorylation Assay
After mixing and incubating for 45 minutes at 37° C., 5 μl D-PBS (unstimulated control) or 20× stocks of 5 μl human IL-15 (final concentration is 50 ng/ml) were added, and mixed three times. After incubating 15 minutes at 37° C., 1× Lyse/Fix Buffer (BD Phosflow 5× Lyse/Fix Buffer) was added to all wells at 1000 μl/well, then incubated for 20 minutes at 37° C. and spun 5 mins at 1200 rpm. […] Following incubating at 4° C. over night, all the samples were transferred to 96-well polypropylene U-bottom plate, and checked by flow cytometry gated on total lymphocytes.

JAK3 enzyme [2] = target: T1, JAK3 enzyme (Homo sapiens (Human), UniProt P52333); experiment: JAK Caliper enzyme assay at 4 μM ATP; format: biochemical
Procedure: (§1) JAK Caliper Enzyme Assay at 4 μM or 1 mM ATP
(§2) Test article was solubilized in dimethyl sulfoxide (DMSO) to a stock concentration of 30 mM. An 11-point half log dilution series was created in DMSO with a top concentration of 600 μM. […] The compound plates were diluted 1 to 60 resulting in a top final assay compound concentration of 10 μM and a 2% DMSO concentration.
(§3) Test article and assay controls were added to a 384-well plate. Reaction mixtures contained 20 mM HEPES, pH 7.4, 10 mM magnesium chloride, 0.01% bovine serum albumin (BSA), 0.0005% Tween 20, 4 μM or 1 mM ATP and 1 μM peptide substrate. […] The assays were initiated by the addition 1 nM JAK3 enzyme and were incubated at room temperature 75 minutes for JAK3. Enzyme concentrations and incubation times were optimized for each new enzyme preps and were modified slightly over time to ensure 20%-30% phosphorylation. The assays were stopped with a final concentration of 10 mM EDTA, 0.1% Coating Reagent and 100 mM HEPES, pH=7.4. The assay plates were placed on a Caliper Life Science Lab Chip 3000 (LC3000) instrument, and each well was sampled using appropriate separation conditions to measure the unphosphorylated and phosphorylated peptide.

[3] = system: IL-15 induced P-STAT5 in human PBMC; experiment: PBMC IL-15 induced P-STAT5; format: cell-based; conditions: IL-15 stimulated, read-out: PBMC IL15-STAT5 IC50
Procedure: PBMC IL-15 Induced P-STAT5
Frozen human PBMC (200-250 million cells/vial) was thawed at 37° C. The cells were transferred to 10 mL warm medium in a 50-mL conical tube, and centrifuged at 1,200 RPM at room temperature for 5 min. The supernatant was aspirated. […] After adding 47 ml D-PBS (37° C.) to PBMC/FBS suspension, centrifuging at 1,200 RPM at room temperature for 5 min, and aspirating the supernatant, the cells were resuspended in 20 mL warm RPMI medium. Ninety μL of cell suspension were pipetted per well in a 96-well, deep-well, V-bottom plate, and the plate was incubated at 37° C. for 30 min. […] After adding 0.8 mL staining buffer per well, the plates were centrifuged at 1,200 RPM (Beckman GS-6R or Sorvall Legend) at room temperature for 5 min, and again the supernatant was aspirated using a 8-channel or 12-channel manifold. The plate was vortexed, and 0.35 mL 90% methanol/10% H2O (−20° C.) was added per well, and the plate incubated on ice for 20 min. After again adding 0.8 mL staining buffer per well, the plates were centrifuged at 1,200 RPM (Beckman GS-6R or Sorvall Legend) at room temperature for 5 min, and again the supernatant was aspirated using a 8-channel or 12-channel manifold, and then 0.8 mL Staining buffer was added per well. […] Samples were analyzed using a BD Calibur™ or BD FACSCanto™ flow cytometer equipped with the BD High Throughput Sampler.

JAK3 enzyme [4] = target: T1, JAK3 enzyme; experiment: JAK Caliper enzyme assay at 1 mM ATP; format: biochemical
Procedure: as §1, §2, §3

[5] = Stability of JAK3 covalent inhibitors in human whole blood; format: in vitro ADME; conditions: both sexes, whole blood (fresh, pooled, K2-EDTA), 37° C., read-out: Human blood stability t1/2;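 also: parent compound remaining over incubation time quantified by LC-MS/MS as peak area ratio against an internal standard, using pooled K2-EDTA blood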
Description: Stability of JAK3 Covalent Inhibitors in Rat and Human Whole Blood
Rat blood was collected from 3 male Sprague-Dawley rats (200-250 g, Charles River Laboratories) and pooled for each study. Human blood was collected from one male and one female healthy subjects at the Occupational Health & Wellness Center at Pfizer, Groton, CT and pooled for each study. Both rat and human blood was collected freshly into K2-EDTA tubes and kept on ice. An aliquot of the blood was transferred to microtubes and pre-warmed for 10 min at 37° C. using a heat block. […] An aliquot of the incubation mixture was removed at designated time points during the course of the incubation, mixed with an aliquot of acetonitrile containing an internal standard, vortexed and centrifuged. The resulting supernatants were removed and subjected to LC-MS/MS analyses to determine parent compound concentrations. Peak area ratios of the parent compound vs the internal standard were used to determine the % of parent compound remaining vs incubation time.

T1 sequence (P52333 whole entry, species assumed): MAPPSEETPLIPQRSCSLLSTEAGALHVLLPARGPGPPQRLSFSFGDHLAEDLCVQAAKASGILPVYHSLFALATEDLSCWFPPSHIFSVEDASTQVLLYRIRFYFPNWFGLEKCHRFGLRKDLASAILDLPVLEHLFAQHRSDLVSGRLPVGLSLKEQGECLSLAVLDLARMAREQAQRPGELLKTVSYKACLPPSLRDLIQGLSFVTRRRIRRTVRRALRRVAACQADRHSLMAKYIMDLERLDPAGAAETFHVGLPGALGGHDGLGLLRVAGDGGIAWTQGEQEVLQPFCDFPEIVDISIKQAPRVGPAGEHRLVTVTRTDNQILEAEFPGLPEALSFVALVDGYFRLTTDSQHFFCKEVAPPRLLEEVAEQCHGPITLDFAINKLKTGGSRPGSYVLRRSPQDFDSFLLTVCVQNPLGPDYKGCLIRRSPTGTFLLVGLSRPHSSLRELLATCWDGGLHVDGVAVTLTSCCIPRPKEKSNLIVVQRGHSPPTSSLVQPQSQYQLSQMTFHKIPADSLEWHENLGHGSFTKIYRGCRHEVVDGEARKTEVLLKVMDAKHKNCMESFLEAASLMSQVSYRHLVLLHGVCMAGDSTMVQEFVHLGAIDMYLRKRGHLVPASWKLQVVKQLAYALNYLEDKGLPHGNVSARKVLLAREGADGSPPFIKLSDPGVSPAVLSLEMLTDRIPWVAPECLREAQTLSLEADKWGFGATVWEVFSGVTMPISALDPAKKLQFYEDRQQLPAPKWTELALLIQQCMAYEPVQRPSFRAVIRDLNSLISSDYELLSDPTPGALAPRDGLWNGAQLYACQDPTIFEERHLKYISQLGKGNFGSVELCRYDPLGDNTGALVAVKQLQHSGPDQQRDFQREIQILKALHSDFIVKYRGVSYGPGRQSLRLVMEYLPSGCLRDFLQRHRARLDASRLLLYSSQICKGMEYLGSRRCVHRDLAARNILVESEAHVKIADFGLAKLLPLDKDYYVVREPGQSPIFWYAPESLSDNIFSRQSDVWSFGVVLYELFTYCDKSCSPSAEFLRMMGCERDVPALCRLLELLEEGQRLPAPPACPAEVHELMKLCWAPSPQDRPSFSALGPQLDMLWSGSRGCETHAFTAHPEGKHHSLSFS

| IC50 [1] [µM] | IC50 (JAK3 enzyme [2]) [nM] | IC50 (JAK3 enzyme [4]) [nM] | half-life at 1 μM [5] [min] | SMILES | IC50 [3] [µM] |
| --- | --- | --- | --- | --- | --- |
| > 10 | 418 | > 10000 | – | C=CC(=O)N1C[C@H](Nc2ncnc3[nH]ccc23)[C@H]2CC[C@@H]1C2 (racemic) [Example 116, Rac-1-((1R,4R,5S)-4-(7H-pyrrolo[2,3-d]pyrimidin-4-ylamino)-2-azabicyclo[3.2.1]octan-2-yl)prop-2-en-1-one] | > 10 |
| – | 0.9 | 84.4 | 117 | C=CC(=O)N1C[C@@H]2C[C@H]1CN2c1cnc2[nH]cc(C(=O)NC(C)C)c2n1 [Example 300, 2-[(1S,4S)-5-acryloyl-2,5-diazabicyclo[2.2.1]hept-2-yl]-N-(propan-2-yl)-5H-pyrrolo[2,3-b]pyrazine-7-carboxamide] | – |

Reference: patent publication US9617258B2, “Pyrrolo[2,3-d]pyrimidinyl, pyrrolo[2,3-b]pyrazinyl and pyrrolo[2,3-d]pyridinyl acrylamides” (Pfizer Inc., priority 2013, dated 2017)
